Experimental data reported in patent US10219516B2, “Molecules having pesticidal utility, and intermediates, compositions, and processes, related thereto” (priority 2015, dated 2019).

Assays:
Assay type in all cases: in vivo
[1] = tested on: Yellow Fever Mosquito (Aedes aegypti, AEDSAE); experiment: Bioassay on Yellow Fever Mosquito (YFM), 96-well plate larval assay; conditions: Yellow Fever Mosquito, 96-well plate larval assay
In short: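 Each well was scored for mortality after 3 days at room temperature under a non-evaporative lid. Test molecules came from DMSO masters (4000 ppm stock) diluted with water/acetone 90:10 and dispensed into six replicate plates, which were then infested with roughly 1-day-old larvae in liver-powder water.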

[2] = tested on: Cabbage Looper (Trichoplusia ni, TRIPNI); experiment: Bioassay on Cabbage Looper (CL), 128-well diet tray assay; conditions: Trichoplusia ni; Cabbage Looper, 128-well diet tray assay; read-out: CL rating
In short: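 Mortality of second instar larvae exposed to diet coated with 50 μg/cm^2 compound (acetone-water 90:10 vehicle, dried); 25° C., 5–7 days.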

[3] = tested on: Beet Armyworm (Spodoptera exigua, LAPHEG); experiment: Bioassay on Beet Armyworm (BAW), 128-well diet tray assay; conditions: Beet Armyworm, 128-well diet tray assay, read-out: BAW rating
In short: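 Artificial diet surface-treated with 50 μg/cm^2 test molecule in 90:10 acetone-water, dried, then infested with one to five second instar larvae per well. Held covered and vented at 25° C., 14:10 light-dark for five to seven days; percent mortality recorded per well and averaged over eight wells.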

Structure (SMILES) | YFM rating [1] | pest or weed control at 50 µg/cm2 [2] | pest or weed control at 50 µg/cm2 [3]
CN(C(=O)c1cc(NC(=O)[C@H]2[C@H](c3ccc(Cl)c(C(F)F)c3)C2(Cl)Cl)ccc1Cl)c1ccc(F)cc1 (relative stereo) [F593, 2-Chloro-5-(trans-2,2-dichloro-3-(4-chloro-3-(difluoromethyl)phenyl)cyclopropane-1-carboxamido)-N-(4-fluorophenyl)-N-methylbenzamide] | A (80-100) | 50 to 100% | 50 to 100%
CN(C(=O)c1cc(NC(=O)[C@H]2[C@H](c3cc(F)cc(C(F)F)c3)C2(Cl)Cl)ccc1Cl)c1ccc(F)cc1 (relative stereo) [F594, 2-Chloro-5-(trans-2,2-dichloro-3-(3-(difluoromethyl)-5-fluorophenyl)cyclopropane-1-carboxamido)-N-(4-fluorophenyl)-N-methylbenzamide] | A (80-100) | 50 to 100% | 50 to 100%
CN(C(=O)c1cc(NC(=O)[C@H]2[C@H](c3ccc(F)c(C(F)F)c3)C2(Cl)Cl)ccc1Cl)c1ccc(F)cc1 (relative stereo) [F595, 2-Chloro-5-(trans-2,2-dichloro-3-(3-(difluoromethyl)-4-fluorophenyl)cyclopropane-1-carboxamido)-N-(4-fluorophenyl)-N-methylbenzamide] | A (80-100) | 50 to 100% | 50 to 100%
CN(C(=O)c1cc(NC(=O)[C@H]2[C@H](c3ccc(C(F)F)c(Cl)c3)C2(Cl)Cl)ccc1Cl)c1ccc(F)cc1 (relative stereo) [F596, 2-Chloro-5-(trans-2,2-dichloro-3-(3-chloro-4-(difluoromethyl)phenyl)cyclopropane-1-carboxamido)-N-(4-fluorophenyl)-N-methylbenzamide] | A (80-100) | 50 to 100% | 50 to 100%
CN(C(=O)c1cc(NC(=O)[C@H]2[C@H](c3ccc(C(F)F)c(F)c3)C2(Cl)Cl)ccc1Cl)c1ccc(F)cc1 (relative stereo) [F597, 2-Chloro-5-(trans-2,2-dichloro-3-(4-(difluoromethyl)-3-fluorophenyl)cyclopropane-1-carboxamido)-N-(4-fluorophenyl)-N-methylbenzamide] | A (80-100) | 50 to 100% | 50 to 100%
CN(C(=O)c1cc(NC(=O)[C@H]2[C@H](c3cccc(C(F)F)c3)C2(Cl)Cl)ccc1Cl)c1ccc(F)cc1 (relative stereo) [F598, 2-Chloro-5-(trans-2,2-dichloro-3-(3-(difluoromethyl)phenyl)cyclopropane-1-carboxamido)-N-(4-fluorophenyl)-N-methylbenzamide] | A (80-100) | 50 to 100% | 50 to 100%
CN(C(=O)c1cc(NC(=O)[C@H]2[C@H](c3ccc(C(F)F)cc3)C2(Cl)Cl)ccc1Cl)c1ccc(F)cc1 (relative stereo) [F599, 2-Chloro-5-(trans-2,2-dichloro-3-(4-(difluoromethyl)phenyl)cyclopropane-1-carboxamido)-N-(4-fluorophenyl)-N-methylbenzamide] | A (80-100) | 50 to 100% | 50 to 100%
O=C(Nc1ccc(F)cc1F)c1cc(NC(=O)[C@H]2[C@H](c3ccc(F)c(Cl)c3)C2(Cl)Cl)ccc1Cl (relative stereo) [PF6, trans-2-Chloro-5-(2,2-dichloro-3-(3-chloro-4-fluorophenyl)cyclopropane-1-carboxamido)-N-(2,4-difluorophenyl)benzamide] | A (80-100) | 50 to 100% | 50 to 100%
CCc1ccc(NC(=O)[C@H]2[C@H](c3cc(Cl)cc(Cl)c3)C2(Cl)Cl)cc1C(=O)Nc1ccc(F)cc1 (relative stereo) [PF8, trans-5-(2,2-Dichloro-3-(3,5-dichlorophenyl)cyclopropanecarboxamido)-2-ethyl-N-(4-fluorophenyl)benzamide] | A (80-100) | 50 to 100% | 50 to 100%
C=Cc1ccc(NC(=O)[C@H]2[C@H](c3cc(Cl)cc(Cl)c3)C2(Cl)Cl)cc1C(=O)Nc1ccc(F)cc1 (relative stereo) [PF9, trans-5-(2,2-Dichloro-3-(3,5-dichlorophenyl)cyclopropanecarboxamido)-N-(4-fluorophenyl)-2-vinylbenzamide] | A (80-100) | 50 to 100% | 50 to 100%
O=C(Nc1ccc(SCC(F)(F)F)cc1)c1cc(NC(=O)[C@H]2[C@H](c3cc(Cl)cc(Cl)c3)C2(Cl)Cl)ccc1Cl (relative stereo) [PF10, trans-2-Chloro-5-(2,2-dichloro-3-(3,5-dichlorophenyl)cyclopropane-1-carboxamido)-N-(4-((2,2,2-trifluoroethyl)thio)phenyl)benzamide] | B (More than 0-Less than 80) | 50 to 100% | 50 to 100%
O=C(Nc1ccc(SC(F)(F)F)cc1)c1cc(NC(=O)[C@H]2[C@H](c3cc(Cl)cc(Cl)c3)C2(Cl)Cl)ccc1Cl (relative stereo) [PF11, trans-2-Chloro-5-(2,2-dichloro-3-(3,5-dichlorophenyl)cyclopropane-1-carboxamido)-N-(4-((trifluoromethyl)thio)phenyl)benzamide] | B (More than 0-Less than 80) | 50 to 100% | 50 to 100%
CC(C)(C)OC(=O)Nc1ccc(NC(=O)c2cc(NC(=O)[C@H]3[C@H](c4cc(Cl)cc(Cl)c4)C3(Cl)Cl)ccc2Cl)cc1 (relative stereo) [PF13, trans-tert-Butyl-(4-(2-chloro-5-(2,2-dichloro-3-(3,5-dichlorophenyl)cyclopropane-1-carboxamido)benzamido)phenyl)carbamate] | A (80-100) | 50 to 100% | 50 to 100%
C#Cc1ccc(NC(=O)c2cc(NC(=O)[C@H]3[C@H](c4cc(Cl)cc(Cl)c4)C3(Cl)Cl)ccc2Cl)cc1 (relative stereo) [PF15, trans-2-Chloro-5-(2,2-dichloro-3-(3,5-dichlorophenyl)cyclopropane-1-carboxamido)-N-(4-ethynylphenyl)benzamide] | B (More than 0-Less than 80) | 50 to 100% | 50 to 100%
C=Cc1ccc(NC(=O)c2cc(NC(=O)[C@H]3[C@H](c4cc(Cl)cc(Cl)c4)C3(Cl)Cl)ccc2Cl)cc1 (relative stereo) [PF16, trans-2-Chloro-5-(2,2-dichloro-3-(3,5-dichlorophenyl)cyclopropane-1-carboxamido)-N-(4-vinylphenyl)benzamide] | A (80-100) | 50 to 100% | 50 to 100%
O=C(Nc1ccc(S(=O)(=O)CC(F)(F)F)cc1)c1cc(NC(=O)[C@H]2[C@H](c3cc(Cl)cc(Cl)c3)C2(Cl)Cl)ccc1Cl (relative stereo) [PF17, trans-2-chloro-5-(2,2-dichloro-3-(3,5-dichlorophenyl)cyclopropane-1-carboxamido)-N-(4-((2,2,2-trifluoroethyl)sulfonyl)phenyl)benzamide] | B (More than 0-Less than 80) | 50 to 100% | 50 to 100%
O=C(Nc1ccc([S+]([O-])CC(F)(F)F)cc1)c1cc(NC(=O)[C@H]2[C@H](c3cc(Cl)cc(Cl)c3)C2(Cl)Cl)ccc1Cl (relative stereo) [PF18, trans-2-Chloro-5-(2,2-dichloro-3-(3,5-dichlorophenyl)cyclopropane-1-carboxamido)-N-(4-((2,2,2-trifluoroethyl)sulfinyl)phenyl)benzamide] | B (More than 0-Less than 80) | 50 to 100% | 50 to 100%
O=C(Nc1ccc(S(=O)(=O)C(F)(F)F)cc1)c1cc(NC(=O)[C@H]2[C@H](c3cc(Cl)cc(Cl)c3)C2(Cl)Cl)ccc1Cl (relative stereo) [PF19, trans-2-Chloro-5-(2,2-dichloro-3-(3,5-dichlorophenyl)cyclopropane-1-carboxamido)-N-(4-((trifluoromethyl)sulfonyl)phenyl)benzamide] | A (80-100) | 50 to 100% | 50 to 100%
O=C(Nc1ccc([S+]([O-])C(F)(F)F)cc1)c1cc(NC(=O)[C@H]2[C@H](c3cc(Cl)cc(Cl)c3)C2(Cl)Cl)ccc1Cl (relative stereo) [PF20, trans-2-Chloro-5-(2,2-dichloro-3-(3,5-dichlorophenyl)cyclopropane-1-carboxamido)-N-(4-((trifluoromethyl)sulfinyl)phenyl)benzamide] | A (80-100) | 50 to 100% | 50 to 100%
Cl.Nc1ccc(NC(=O)c2cc(NC(=O)[C@H]3[C@H](c4cc(Cl)cc(Cl)c4)C3(Cl)Cl)ccc2Cl)cc1 (relative stereo) [PF21, trans-N-(4-aminophenyl)-2-chloro-5-(2,2-dichloro-3-(3,5-dichlorophenyl)cyclopropane-1-carboxamido)benzamide hydrochloride] | A (80-100) | 50 to 100% | 50 to 100%
